Data as given in US20230277449A1, “ORAL CAVITY POLYMERIC DELIVERY SYSTEMS” (YISSUM RESEARCH DEVELOPMENT COMPANY OF THE HEBREW …, priority 2020, published 2023).
Converted amounts (≈) assume the structure as drawn.

What was measured:
[1] = In-vivo permeability study on rats (buccal administration)
[2] = Ex-vivo permeability of APO, MTP and ATN in Ussing diffusion chamber; type: in vitro ADME, pig; settings: pH 7.4 with addition of 10% v/v NLF
[3] = Simulation of the results in pig to human setup; settings: same ABPD conditions, CL difference, Eq. 2
[4] = APO release from hydrogel-based core through dialysis bag; type: physicochemical; settings: 20 mg APO in 0.5 ml hydrogel pH 5.9, dialysis bag
Description: DDW. 100.0, 120.0 or 150 mg fish gelatin were added. No gelatin was added to the fourth group. All work was done in triplicates. After vigorous stirring full dissolution to homogenous solution was achieved. The pH of the solutions was adjusted to 5.9 by H3PO4 and KOH. 0.5 ml of each solution was introduced into dialysis bag (Specta/PorⓇDialysis membrane, MWCO 25000, flat width 12 mm). The bags were submerged into a beaker with 100 ml 0.1% ascorbic acid solution adjusted to pH 5.9 by NaOH and HCl. The solutions were held at 34° C. (±1) with constant stirring. 100 µl samples were taken at time points 0, 10, 25, 40, 60, 90, 120, 150 and 180 min into a vial containing 1 µl of 10%^v/v mercaptoethanol ethanolic solution. 100 µl of fresh receiving solution was added to the beaker to retain sink conditions. […]
2.1.4 Chromatographic analysis of in-vitro samples: The samples were injected into Waters 2695 Separation Module HPLC system coupled with Waters 2475 Multi Gamma Fluorescence Detector (Waters Co., MA, USA), into BDS Hypersil Cyano (Phenomenex, CA, USA) column (5 µm, 100 Å, 250 mm × 4.6 mm) protected by Hypersil Cyano (Phenomenex, CA, USA) pre-column (5 µm, 4 mm × 10 mm). […] Linearity curve (2.5-250 µg/ml, R^2>0.997) was performed before the batch of samples and used for quantification.

[5] = Ex-vivo - in-vivo correlation (Jss and Css calculated from Papp for pig)
[6] = Simulation to human plasma levels from ex-vivo Papp
[7] = Monitored vital parameters after IV APO in pigs; type: in vivo, pig; settings: 1 mg/kg IV APO, mean (lowest - highest)
Excerpt: Pigs were fasted overnight before the experiments. […] Pigs were positioned on their back.

[8] = Intravenous administration of APO to rats; type: in vivo; settings: male, Wistar, rat, plasma, 2.0 mg/kg IV
[9] = cited from earlier work
[10] = Physicochemical properties stated in the text (log P, pKa, solubility); settings: gelatin hydrogel, aqueous with cosolvent or surfactant or cyclodextrin, read-out: solubility in buffered hydrogel

APO in the plasma ([1]; buccal solution, three anesthetized rats, 8 h): not detected | APO concentration in the solution inside the delivery device at 8 h vs initial ([1]; rats): did not change | lag-time [2]: 3 h | Css simulated for 70 kg human [3]: 4 to 6 ng/mL | time at which all APO dose was released [4]: 1.5 h | ex-vivo predicted Css lower than in-vivo Css [5]: 4 times | Jss calculated ([5]; pH 5.9, 40 mg/ml APO in hydrogel, Eq. 3): 0.073 mg/(cm^2*h) | Css calculated from ex-vivo Papp ([5]; pig of 43 kg, 4.74 cm^2, Eq. 2): 0.59 ng/mL | Jss calculated (mg/(cm^2*h)) ([6]; 1:1 ethanol: propylene glycol, 20 mg/ml): 0.84 mg/(cm^2*h) | Jss calculated (mg/(cm^2*h)) ([6]; pH 5.9, 20 mg/ml): 0.04 mg/(cm^2*h) | Jss calculated (mg/(cm^2*h)) ([6]; pH 7.4, 20 mg/ml): 0.22 mg/(cm^2*h) | Diastolic blood press (mmHg) [7]: 43.1 (32 - 55) mmHg | O2 saturation (%) [7]: 97.7 (95 - 100) % | Respiration rate kept at (min^-1) [7]: 12.2 (11- 13) min^-1 | Systolic blood press (mmHg) [7]: 81.7 (72 - 101) mmHg | Rectal temp (°C) ([7]; four pigs): 38.2 (37.4 - 39.4) °C | clearance [8]: 153 mL/min/kg | Vd ([8]; read-out: volume of distribution): 3.3 L/kg | solubility [10]: 40 mg/mL (≈ 150 mM)
Structure (SMILES): CN1CCc2cccc3c2[C@H]1Cc1ccc(O)c(O)c1-3 [APO, apomorphine]
Heart rate (beats/min) [7]: 95.2 (74 - 120) beats/min | log P [9]: 2.0
